The IC50 is the concentration needed to halve the response being measured. A higher IC50 goes with a need for much substance.

This test concerns the target T1, ferroportin (Fpn) (Mus musculus, UniProt Q9JHI9).
T1 construct: endogenous in cells; host or cells: J774 mouse macrophage cell line, induced with Fe(III)NTA
T1 sequence (Q9JHI9 1-570): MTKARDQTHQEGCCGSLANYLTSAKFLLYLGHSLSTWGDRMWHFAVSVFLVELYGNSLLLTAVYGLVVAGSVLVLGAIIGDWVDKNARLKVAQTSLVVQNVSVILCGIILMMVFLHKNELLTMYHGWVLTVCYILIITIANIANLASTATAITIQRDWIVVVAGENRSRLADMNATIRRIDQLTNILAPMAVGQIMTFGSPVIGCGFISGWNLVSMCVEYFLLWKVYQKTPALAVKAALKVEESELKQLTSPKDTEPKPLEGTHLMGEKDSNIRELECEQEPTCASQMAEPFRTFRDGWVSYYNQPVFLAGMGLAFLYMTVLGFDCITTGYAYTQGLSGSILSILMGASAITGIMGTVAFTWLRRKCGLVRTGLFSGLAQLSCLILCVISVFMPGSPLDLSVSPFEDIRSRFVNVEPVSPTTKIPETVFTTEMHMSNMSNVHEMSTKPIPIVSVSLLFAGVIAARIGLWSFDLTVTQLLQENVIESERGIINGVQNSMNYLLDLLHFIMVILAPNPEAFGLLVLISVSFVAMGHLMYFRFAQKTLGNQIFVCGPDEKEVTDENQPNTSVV
Nature of the test: Hepcidin Internalization Assay (J774). In kind it is cell-based. The settings on record: Average (AVE) IC50 of multiple measurements; inhibition of TMR-hepcidin (25 nM) internalization into J774 cells. In short, it runs like this: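 Mouse J774 cells; Fpn inhibition read as reduced internalization of TMR-labelled hepcidin, imaged by fluorescence microscopy with Hoechst 33342 co-stain after fixation. IC50 from Sum(Mean) TMR signal fitted to three- or four-parameter log(inhibitor) vs. response, whichever fit better.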
Take `CN(C)CCn1c(CCNCCc2nc(C(=O)NCc3ncccc3F)co2)nc2cc3c(cc21)OCCO3` [Example 77, 2-(2-((2-(1-(2-(dimethylamino)ethyl)-6,7-dihydro-1 H-[1,4]dioxino[2′,3′:4,5]benzo[1,2-d]imidazol-2-yl)ethyl)amino)ethyl)-N-((3-fluoropyridin-2-yl)methyl)oxazole-4-carboxamide]: half-maximal inhibition (IC50) required 5.1 nM.
In turn, `O=C(NCc1ncccc1F)c1coc(CCNCCc2nc3cc4c(cc3n2CCN2CCOCC2)OCCO4)n1` [Example 81, N-((3-fluoropyridin-2-yl)methyl)-2-(2-((2-(1-(2-morpholinoethyl)-6,7-dihydro-1 H-[1,4]dioxino[2′,3′:4,5]benzo[1,2-d]imidazol-2-yl)ethyl)amino)ethyl)oxazole-4-carboxamide] came in with an IC50 of 4 nM.
As for `O=C(NCc1ncccc1F)c1coc(CCNCCc2nc3cc4c(cc3n2-c2ccccc2)OCO4)n1` [Example 82, N-((3-fluoropyridin-2-yl)methyl)-2-(2-((2-(5-phenyl-5H-[1,3]dioxolo[4′,5′:4,5]benzo[1,2-d]imidazol-6-yl)ethyl)amino)ethyl)oxazole-4-carboxamide], the IC50 turned out to be 2 nM.
With `O=C(NCc1ncccc1F)c1coc(CCNCCc2nc3cc4c(cc3n2-c2ccccc2)OCCO4)n1` [Example 83, N-((3-fluoropyridin-2-yl)methyl)-2-(2-((2-(1-phenyl-6,7-dihydro-1 H-[1,4]dioxino[2′,3′:4,5]benzo[1,2-d]imidazol-2-yl)ethyl)amino)ethyl)oxazole-4-carboxamide] the figure was 1.9 nM; with `CN1CCN(CCn2c(CCNCCc3nc(C(=O)NCc4ncccc4F)co3)nc3cc4c(cc32)OCCO4)CC1` [Example 84, N-((3-fluoropyridin-2-yl)methyl)-2-(2-((2-(1-(2-(4-methylpiperazin-1-yl)ethyl)-6,7-dihydro-1H-[1,4]dioxino[2′,3′:4,5]benzo[1,2-d]imidazol-2-yl)ethyl)amino)ethyl)oxazole-4-carboxamide], 150 nM.
`O=C(NCc1ncccc1F)c1coc(CCNCCc2nc3cc(C#Cc4ccccn4)ccc3n2-c2ccccc2)n1` [Example 85, N-((3-fluoropyridin-2-yl)methyl)-2-(2-((2-(1-phenyl-5-(pyridin-2-ylethynyl)-1H-benzo[d]imidazol-2-yl)ethyl)amino)ethyl)oxazole-4-carboxamide] had an IC50 of 7.8 nM.
With `COCCn1c(CCNCCc2nc(C(=O)NCc3ncccc3F)co2)nc2cc(C#Cc3ccccn3)ccc21` [Example 86, N-((3-fluoropyridin-2-yl)methyl)-2-(2-((2-(1-(2-methoxyethyl)-5-(pyridin-2-ylethynyl)-1 H-benzo[d]imidazol-2-yl)ethyl)amino)ethyl)oxazole-4-carboxamide] the figure was 4.1 nM; with `CCCCn1c(CCNCCc2nc(C(=O)NCc3ncccc3F)co2)nc2cc(OC)c(OC)cc21` [Example 87, 2-(2-((2-(1-butyl-5,6-dimethoxy-1 H-benzo[d]imidazol-2-yl)ethyl)amino)ethyl)-N-((3-fluoropyridin-2-yl)methyl)oxazole-4-carboxamide], 17 nM.
Regarding `O=C(NCc1ncccc1F)c1coc(CCNCCc2nc3cc4c(cc3n2CCOC2CCCCC2)OCCO4)n1` [Example 88, 2-(2-((2-(1-(2-(cyclohexyloxy)ethyl)-6,7-dihydro-1H-[1,4]dioxino[2′,3′:4,5]benzo[1,2-d]imidazol-2-yl)ethyl)amino)ethyl)-N-((3-fluoropyridin-2-yl)methyl)oxazole-4-carboxamide], half-maximal inhibition (IC50) was put at 0.9 nM.
In the case of `O=C(NCc1ncccc1F)c1coc(CCNCCc2nc3cc(C#Cc4ccccn4)ccc3n2CC2CC2)n1` [Example 89, 2-(2-((2-(1-(cyclopropylmethyl)-5-(pyridin-2-ylethynyl)-1 H-benzo[d]imidazol-2-yl)ethyl)amino)ethyl)-N-((3-fluoropyridin-2-yl)methyl)oxazole-4-carboxamide], half-maximal inhibition (IC50) required 4 nM.
As to `COc1ccc(-n2c(CCNCCc3nc(C(=O)NCc4ncccc4F)co3)nc3cc(OC)c(OC)cc32)cc1OC` [Example 90, 2-(2-((2-(1-(3,4-dimethoxyphenyl)-5,6-dimethoxy-1 H-benzo[d]imidazol-2-yl)ethyl)amino)ethyl)-N-((3-fluoropyridin-2-yl)methyl)oxazole-4-carboxamide], the half-inhibitory concentration (IC50) worked out at 39 nM.
In the case of `COc1cccnc1CNC(=O)c1coc(CCNCCc2nc3cc4c(cc3n2CCOC2CCCCC2)OCCO4)n1` [Example 91, 2-(2-((2-(1-(2-(cyclohexyloxy)ethyl)-6,7-dihydro-1H-[1,4]dioxino[2′,3′:4,5]benzo[1,2-d]imidazol-2-yl)ethyl)amino)ethyl)-N-((3-methoxypyridin-2-yl)methyl)oxazole-4-carboxamide], the concentration for half-maximal inhibition (IC50) was determined as 2 nM.
With `COc1cccc(-n2c(CCNCCc3nc(C(=O)NCc4ncccc4F)co3)nc3cc4c(cc32)OCCO4)c1` [Example 92, N-((3-fluoropyridin-2-yl)methyl)-2-(2-((2-(1-(3-methoxyphenyl)-6,7-dihydro-1 H-[1,4]dioxino[2′,3′:4,5]benzo[1,2-d]imidazol-2-yl)ethyl)amino)ethyl)oxazole-4-carboxamide] the figure was 2 nM; with `COc1cccc(-n2c(CCNCCc3nc(C(=O)NCc4ncccc4OC)co3)nc3cc4c(cc32)OCCO4)c1` [Example 93, 2-(2-((2-(1-(3-methoxyphenyl)-6,7-dihydro-1 H-[1,4]dioxino[2′,3′:4,5]benzo[1,2-d]imidazol-2-yl)ethyl)amino)ethyl)-N-((3-methoxypyridin-2-yl)methyl)oxazole-4-carboxamide], 3 nM; with `O=C(NCc1ncccc1F)c1coc(CCNCCc2nc3cc4c(cc3n2CCc2ncco2)OCCO4)n1` [Example 94, N-((3-fluoropyridin-2-yl)methyl)-2-(2-((2-(1-(2-(oxazol-2-yl)ethyl)-6,7-dihydro-1 H-[1,4]dioxino[2′,3′:4,5]benzo[1,2-d]imidazol-2-yl)ethyl)amino)ethyl)oxazole-4-carboxamide], 365 nM.
`COc1cccnc1CNC(=O)c1coc(CCNCCc2nc3cc4c(cc3n2CCc2ncco2)OCCO4)n1` [Example 95, N-((3-methoxypyridin-2-yl)methyl)-2-(2-((2-(1-(2-(oxazol-2-yl)ethyl)-6,7-dihydro-1 H-[1,4]dioxino[2′,3′:4,5]benzo[1,2-d]imidazol-2-yl)ethyl)amino)ethyl)oxazole-4-carboxamide] registered an IC50 of 26 nM.
The molecule `COCCn1c(C2CN(CCc3nc(C(=O)NCc4ncccc4F)co3)C2)nc2ccccc21` [Example 96, N-((3-fluoropyridin-2-yl)methyl)-2-(2-(3-(1-(2-methoxyethyl)-1H-benzo[d]imidazol-2-yl)azetidin-1-yl)ethyl)oxazole-4-carboxamide] displayed a half-maximal inhibitory concentration (IC50) of 223 nM.
For `CN(C)CCn1c(C2CN(CCc3nc(C(=O)NCc4ncccc4F)co3)C2)nc2ccccc21` [Example 97, 2-(2-(3-(1-(2-(dimethylamino)ethyl)-1H-benzo[d]imidazol-2-yl)azetidin-1-yl)ethyl)-N-((3-fluoropyridin-2-yl)methyl)oxazole-4-carboxamide], the IC50 came to 89 nM.
